According to PubChem BioAssay (NCI):
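Briefly, cells in 96-well plates were exposed to five compound concentrations for 48 h, and endpoints were estimated by linear interpolation. GI50: concentration for 50% inhibition of growth. Definition used: TGI = concentration required for complete inhibition of growth.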

Columns and labels:
Experiment in all cases: inhibition of tumour cell growth, NCI panel, 48 h; in the data active = GI50 below about 0.43 µM; inactive = the rest
[1] = tested on: SF-539 CNS
[2] = tested on: MDA-MB-435
[3] = tested on: A498 renal
[4] = tested on: PC-3 prostate
[5] = tested on: NCI/ADR-RES ovarian
[6] = tested on: DU-145 prostate
[7] = tested on: HCT-15 colon
[8] = tested on: SF-295 CNS
[9] = tested on: COLO 205 colon
[10] = tested on: CCRF-CEM leukemia
[11] = tested on: UACC-62 melanoma
[12] = tested on: SF-268 CNS
[13] = tested on: NCI-H522 lung
[14] = tested on: BT-549 breast
[15] = tested on: SNB-19 CNS
[16] = tested on: M14 melanoma
[17] = tested on: RPMI-8226 leukemia
[18] = tested on: SK-OV-3 ovarian
[19] = tested on: K-562 leukemia
[20] = tested on: ACHN renal
[21] = tested on: RXF 393 renal
[22] = tested on: SN12C renal
[23] = tested on: HOP-62 NSCLC
[24] = tested on: SK-MEL-5 melanoma
[25] = tested on: MDA-MB-231 breast
[26] = tested on: NCI-H23 lung
[27] = tested on: 786-0 renal
[28] = tested on: KM12 colon
[29] = tested on: T-47D breast
[30] = tested on: MALME-3M melanoma
[31] = tested on: SK-MEL-28 melanoma
[32] = tested on: NCI-H460 lung
[33] = tested on: TK-10 renal
[34] = tested on: SK-MEL-2 melanoma
[35] = tested on: IGROV1 ovarian
[36] = tested on: OVCAR-4 ovarian
[37] = tested on: A549 NSCLC
[38] = tested on: OVCAR-5 ovarian
[39] = tested on: SR leukemia
[40] = tested on: NCI-H226 lung
[41] = tested on: HS 578T breast
[42] = tested on: U251 CNS
[43] = tested on: SW-620 colon
[44] = tested on: MOLT-4 leukemia
[45] = tested on: HL-60(TB) leukemia
[46] = tested on: MCF7 breast
[47] = tested on: UO-31 renal
[48] = tested on: LOX IMVI melanoma
[49] = tested on: HOP-92 NSCLC
[50] = tested on: SNB-75 CNS
[51] = tested on: HCT-116 colon
[52] = tested on: UACC-257 melanoma
[53] = tested on: HCC-2998 colon
[54] = tested on: OVCAR-8 ovarian
[55] = tested on: HT29 colon
[56] = tested on: CAKI-1 renal

Nc1ccc(-c2nnc(SCc3ccc(O)c4ncccc34)o2)cc1
1910 nM: TGI [47]
> 85900 nM: TGI [21]
28800 nM: TGI [51]
910 nM: TGI [52]
> 50700 nM: TGI [13]
2280 nM: TGI [11]
2730 nM: TGI [34]
> 41900 nM: TGI [35]
> 100000 nM: TGI [2] | TGI [4] | TGI [5] | TGI [7] | TGI [10] | TGI [14] | TGI [17] | TGI [19] | TGI [22] | TGI [28] | TGI [29] | TGI [31] | TGI [36] | TGI [37] | TGI [38] | TGI [39] | TGI [40] | TGI [41] | TGI [43] | TGI [44] | TGI [46] | TGI [53] | TGI [54] | TGI [55]
2810 nM: TGI [16]
active: GI50 [1] 64.2 nM | GI50 [2] 45.4 nM | GI50 [3] 317 nM | GI50 [4] 50.2 nM | GI50 [5] 43.9 nM | GI50 [6] 55 nM | GI50 [7] 38.2 nM | GI50 [8] 41.2 nM | GI50 [10] 61.7 nM | GI50 [11] 249 nM | GI50 [12] 64.1 nM | GI50 [13] 44 nM | GI50 [14] 55.8 nM | GI50 [15] 43.8 nM | GI50 [16] 60.4 nM | GI50 [17] 46.1 nM | GI50 [18] 80.7 nM | GI50 [19] 44.2 nM | GI50 [20] 72.6 nM | GI50 [21] 90.6 nM | GI50 [22] 39.2 nM | GI50 [23] 81.5 nM | GI50 [24] 49.1 nM | GI50 [25] 154 nM | GI50 [26] 49.2 nM | GI50 [27] 224 nM | GI50 [28] 128 nM | GI50 [29] 85 nM | GI50 [30] 92.7 nM | GI50 [31] 139 nM | GI50 [32] 36.7 nM | GI50 [33] 132 nM | GI50 [34] 79.2 nM | GI50 [35] 84.6 nM | GI50 [36] 259 nM | GI50 [37] 41.7 nM | GI50 [39] 89.1 nM | GI50 [41] 50.9 nM | GI50 [42] 35.4 nM | GI50 [43] 61.8 nM | GI50 [44] 124 nM | GI50 [45] 98.7 nM | GI50 [46] 38.7 nM | GI50 [47] 61.9 nM | GI50 [48] 30.5 nM | GI50 [49] 23.8 nM | GI50 [50] 112 nM | GI50 [51] 37.9 nM | GI50 [52] 207 nM | GI50 [53] 177 nM | GI50 [54] 41.8 nM | GI50 [56] 179 nM
> 38500 nM: TGI [6]
> 68100 nM: TGI [56]
> 33700 nM: TGI [48]
2450 nM: TGI [9]
> 75300 nM: TGI [12]
1220 nM: TGI [45]
inactive: GI50 [9] 442 nM | GI50 [38] 498 nM | GI50 [40] 441 nM | GI50 [55] 485 nM
577 nM: TGI [18]
7620 nM: TGI [23]
> 39000 nM: TGI [8]
11800 nM: TGI [42]
31900 nM: TGI [30]
> 51800 nM: TGI [15]
72.4 nM: TGI [49]
3300 nM: TGI [3]
> 31900 nM: TGI [20]
22600 nM: TGI [25]
> 26900 nM: TGI [26]
8750 nM: TGI [1]
16700 nM: TGI [27]
12900 nM: TGI [50]
